Data taken from article PMC5854701 (Scientific Reports, 2018).

How the values were obtained:
[1] = test system: multiple strains of influenza A and B viruses; experiment: microbe, parasite or virus in culture; assay type: cell-based
A/WSN/33 (H1N1) [2] = test system: A/WSN/33 (H1N1)
[3] = test system: influenza B virus B/Wisconsin/1/2010 (Yamagata); experiment: in vitro; details: dog, MDCK
[4] = test system: influenza B virus B/Brisbane/60/2008 (Victoria); experiment: in vitro; details: dog, MDCK
in vitro [5] = details: dog
A/WSN/33 (H1N1) [6] = test system: A/WSN/33 (H1N1); remark: listed apart in the source
[7] = test system: A/California/07/2009 (H1N1)
[8] = test system: A/Denmark/524/2009 (H1N1)
[9] = test system: A/Washington/29/2009 (H1N1)
[10] = test system: B/Wisconsin/1/2010 (Yamagata)
[11] = test system: B/Brisbane/60/2008 (Victoria)
[12] = test system: A/Switzerland/9715293/2013 (H3N2)
[13] = test system: A/Denmark/528/2009 (H1N1)
[14] = test system: B/Memphis/20/1996 (Yamagata)
[15] = test system: B/Utah/09/2014 (Yamagata)
[16] = test system: B/Phuket/3073/2013 (Yamagata)
[17] = test system: influenza B virus B/Memphis/20/1996 (Yamagata); experiment: in vitro; details: dog, MDCK
[18] = test system: influenza B virus B/Utah/09/2014 (Yamagata); experiment: in vitro; details: dog, MDCK
[19] = test system: influenza B virus B/Phuket/3073/2013 (Yamagata); experiment: in vitro; details: dog, MDCK
in vitro [20] = details: human

In the case of `O=c1[nH]c2ccccc2n1C1CCN(C(CCc2ccccc2)c2nnnn2-c2ccc3c(c2)OCCO3)CC1` (stereo not drawn) [Compound 5, 1‐(1‐{1‐[1‐(2,3‐dihydro‐1,4‐benzodioxin‐6‐yl)‐1,2,3,4‐tetrazol‐5‐yl]‐3‐phenylpropyl}piperidin‐4‐ yl)‐3 H‐1,3‐benzodiazol‐2‐one], the “EC50 values against panel of influenza A and B viruses” value [1] is reported as “single to submicromolar”, the “% plaque formation at 5 µM” value (A/WSN/33 (H1N1) [2]) is reported as 16.5 ± 1.2% and the selectivity ratio [3] is reported as 19.3. It also gave a selectivity ratio [4] of 17.4 and a CC50 (in vitro [5]) of 17.4 ± 1.2 µM.

In the case of `O=c1[nH]c2ccccc2n1C1CCN(C(c2ccc(-c3ccccc3)cc2)c2nnnn2-c2ccc3c(c2)OCCO3)CC1` (stereo not drawn) [Compound 9 f, 1‐[1‐({[1,1′‐biphenyl]‐4‐yl}[1‐(2,3‐dihydro‐1,4‐benzodioxin‐6‐yl)‐1 H‐1,2,3,4‐tetrazol‐5‐yl]methyl)piperidin‐4‐yl]‐2,3‐dihydro‐1 H‐1,3‐benzodiazol‐2‐one], the “antiviral activity in plaque assay (in words)” value (from here on “antiviral activity … (in words)”) (A/WSN/33 (H1N1) [2]) is reported as “not active”.

For `CCc1ccc(C(c2nnnn2-c2ccc3c(c2)OCCO3)N2CCC(n3c(=O)[nH]c4ccccc43)CC2)cc1` (stereo not drawn) [Compound 9 g, 1‐(1‐{[1‐(2,3‐dihydro‐1,4‐benzodioxin‐6‐yl)‐1 H‐1,2,3,4‐tetrazol‐5‐yl](4‐ethylphenyl)methyl}piperidin‐4‐yl)‐2,3‐dihydro‐1 H‐1,3‐benzodiazol‐2‐one], the “antiviral activity … (in words)” value (A/WSN/33 (H1N1) [2]) was “moderate antiviral activity”.

For `O=c1[nH]c2ccccc2n1C1CCN(C(c2ccncc2)c2nnnn2-c2ccc3c(c2)OCCO3)CC1` (stereo not drawn) [Compound 9 h, 1‐(1‐{[1‐(2,3‐dihydro-1,4-benzodioxin-6-yl)-1 H-1,2,3,4-tetrazol-5-yl](pyridin-4-yl)methyl}piperidin-4-yl)-2,3-dihydro-1 H-1,3-benzodiazol-2-one], the “antiviral activity … (in words)” value (A/WSN/33 (H1N1) [2]) was “moderate antiviral activity”.

With `O=c1[nH]c2ccccc2n1C1CCN(C(c2ccccc2OC(F)(F)F)c2nnnn2Cc2ccccc2)CC1` (stereo not drawn) [Compound 9 u, 1‐{1‐[(1‐benzyl‐1 H‐1,2,3,4‐tetrazol‐5‐yl)[2‐(trifluoromethoxy)phenyl]methyl]piperidin‐4‐yl}‐2,3‐dihydro‐1 H‐1,3‐benzodiazol‐2‐one] the “% plaque formation at 5 µM” value (A/WSN/33 (H1N1) [2]) was 22.7 ± 2.2%.

In the case of `CCC(c1nnnn1-c1ccc2c(c1)OCCO2)N1CCC(n2c(=O)[nH]c3ccccc32)CC1` (stereo not drawn) [Compound 9d, 1‐(1‐{1‐[1‐(2,3‐dihydro‐1,4‐benzodioxin‐6‐yl)‐1 H‐1,2,3,4‐tetrazol‐5‐yl]propyl}piperidin‐4‐yl)‐2,3‐dihydro‐1 H‐1,3‐benzodiazol‐2‐one], the “antiviral activity … (in words)” value (A/WSN/33 (H1N1) [2]) is reported as “moderate antiviral activity”.

With `O=c1[nH]c2ccccc2n1C1CCN(C(Cc2ccccc2)c2nnnn2-c2ccc3c(c2)OCCO3)CC1` (stereo not drawn) [Compound 9e, 1‐(1‐{1‐[1‐(2,3‐dihydro‐1,4‐benzodioxin‐6‐yl)‐1 H‐1,2,3,4‐tetrazol‐5‐yl]‐2‐phenylethyl}piperidin‐4‐yl)‐2,3‐dihydro‐1 H‐1,3‐benzodiazol‐2‐one] the “antiviral activity … (in words)” value (A/WSN/33 (H1N1) [2]) was “moderate antiviral activity”.

With `CC(C)c1ccc(C(c2nnnn2-c2ccc3c(c2)OCCO3)N2CCC(n3c(=O)[nH]c4ccccc43)CC2)cc1` (stereo not drawn) [Compound 9j, 1‐(1‐{[1‐(2,3‐dihydro‐1,4‐benzodioxin‐6‐yl)‐1 H‐1,2,3,4‐tetrazol‐5‐yl][4‐(propan‐2‐yl)phenyl]methyl}piperidin‐4‐yl)‐2,3‐dihydro‐1 H‐1,3‐benzodiazol‐2‐one] the “antiviral activity … (in words)” value (A/WSN/33 (H1N1) [2]) was “not active”.

For `O=c1[nH]c2ccccc2n1C1CCN(C(c2ccsc2)c2nnnn2Cc2ccccc2)CC1` (stereo not drawn) [Compound 9p, 1‐{1‐[(1‐benzyl‐1 H‐1,2,3,4‐tetrazol‐5‐yl)(thiophen‐3‐yl)methyl]piperidin‐4‐yl}‐2,3‐dihydro‐1 H‐1,3‐benzodiazol‐2‐one], the “% plaque formation at 5 µM” value (A/WSN/33 (H1N1) [2]) was 12.3 ± 2.1%.

For `C[C@@H](c1ccccc1)n1nnnc1[C@H](c1ccsc1)N1CCC(n2c(=O)[nH]c3ccccc32)CC1` [Compound 12a, 1‐{1‐[(S)‐{1‐[(1 S)‐1‐phenylethyl]‐1 H‐1,2,3,4‐tetrazol‐5‐yl}(thiophen‐3‐yl)methyl]piperidin‐4‐yl}‐2,3‐dihydro‐1 H‐1,3‐benzodiazol‐2‐one], the “effect of pre-treatment of cells on viral replication” value (A/WSN/33 (H1N1) [6]) was “little to no effect on viral replication”, the “efficacy when added at later stages of viral replication” value (A/WSN/33 (H1N1) [6]) was “gradually decreased” and the EC50 ([1]; […], read-out: EC50 values against panel of influenza A and B viruses) was 0.6 to 2.7 µM. The “SI (selectivity index), A549” value (A/WSN/33 (H1N1) [2]) was >214.3/140.1, the “SI (selectivity index), A549” value [7] was >115.4/75.5 and the “SI (selectivity index), A549” value [8] was >187.5/122.6. The “SI (selectivity index), A549” value (A/Texas/04/2009 (H1N1)) was >136.4/89.2, the “SI (selectivity index), A549” value [9] was >166.7/109.0 and the “SI (selectivity index), A549” value [10] was >187.5/122.6. For the same molecule, the “SI (selectivity index), A549” value [11] was >250/163.5, the “SI (selectivity index), A549” value [12] was >107.1/70.1 and the “SI (selectivity index), A549” value [13] was >166.7/109.0. The “SI (selectivity index), A549” value [14] was >55.6/36.3, the “SI (selectivity index), A549” value [15] was >100/65.4 and the “SI (selectivity index), A549” value [16] was >125/81.8. For the same molecule, the selectivity ratio [3] was over 188, the selectivity ratio [4] was over 250 and the selectivity ratio [17] was over 55.6. For the same molecule, the selectivity ratio [18] was over 100, the selectivity ratio [19] was over 125 and the CC50 (in vitro [5]) was over 150 µM. For the same molecule, the CC50 (in vitro [20]) was 98.1 ± 2.5 µM.

With `C[C@@H](c1ccccc1)n1nnnc1[C@@H](c1ccsc1)N1CCC(n2c(=O)[nH]c3ccccc32)CC1` [Compound 12b, 1‐{1‐[(R)‐{1‐[(1 S)‐1‐phenylethyl]‐1 H‐1,2,3,4‐tetrazol‐5‐yl}(thiophen‐3‐yl)methyl]piperidin‐4‐yl}‐2,3‐dihydro‐1 H‐1,3‐benzodiazol‐2‐one] the “antiviral activity … (in words)” value (A/WSN/33 (H1N1) [2]) was “not active”.

In the case of `Cc1onc(-c2ccccc2)c1C(=O)N1CCN(c2ccc([N+](=O)[O-])cc2Cl)CC1` [Nucleozin, reference compound], the “% plaque formation” value (A/WSN/33 (H1N1) [2]) is reported as 0%.

In the case of “Oseltamivir carboxylate [reference compound]”, the “antiviral activity when added 8 h post viral infection” value (A/WSN/33 (H1N1) [6]) is reported as “retained potent antiviral activity” and the “% plaque formation” value (A/WSN/33 (H1N1) [2]) is reported as 11.1 ± 2.1%.
